# Experimental data: patent US9181251B2, “Anti-malarial compounds from marine natural products” (University of Central Florida Research Foundation, Inc., priority 2012, dated 2015)
# Where two headings read alike, the source gives them in different places.
# Legend:
# NIH 3T3 fibroblasts = assay: Cytotoxicity against NIH 3T3 fibroblasts (MTS assay); assay type: cell-based; conditions: Table 2, MTS assay
# Method: (§1) Antiplasmodial activity was tested in P falciparum chloroquine resistant Dd2, and the cytotoxicity was assessed in NIH 3T3 fibroblasts cells.
# (§2) Asynchronous cultures were exposed to different concentrations of inhibitor for 72 hrs. […] The cytotoxicity against NIH 3T3 fibroblasts was evaluated using an MTS assay [(3-(4,5-dimethylthiazol-2-yl)-5-(3-carboxymethoxyphenyl)-2-(4-sulfophenyl)-2H-tetrazolium), CellTiter 96® Aqueous non-radioactive cell proliferation assay, Promega
# [1] = system: P. falciparum chloroquine-resistant Dd2 strain; assay: Antiplasmodial activity, SYBR Green I fluorescence-based assay; assay type: cell-based; conditions: for Selectivity: cytotoxicity IC50 (NIH 3T3) over Dd2 IC50
# Method: Fractions were derived from 20 different marine species. […] All fractions were then analyzed by LC-MS to identify active extracts with the greatest potential for novelty.
# as §1, §2
# [2] = reported in the past, Gutierrez et. al. Pharmaceutical Biol. 2005, 43, 762-765; cited from earlier work
# [3] = Cytotoxicity against NIH 3T3 fibroblasts (MTS assay); assay type: cell-based; conditions: mouse, Table 1, NIH 3T3 fibroblasts cells
# Method: as §1, §2
# [4] = has been shown, no source given; cited from earlier work
# [5] = Plasmodium falciparum, Table 2, chloroquine-resistant Dd2 strain, asynchronous cultures, 72 hrs, read-out: P. falciparum IC50
# [6] = Plasmodium falciparum, Table 1, P falciparum chloroquine resistant Dd2, read-out: Dd2 IC50
# [7] = Table 2, chloroquine-resistant Dd2 strain, asynchronous cultures, 72 hrs, read-out: P. falciparum IC50
molecule,measurement,setting,value
"NCC(c1c[nH]c2ccccc12)c1c[nH]c2ccccc12 [2,2 bisindol-3-ylethyl amine 9, 2,2 bisindol-3-ylethyl amine]",IC50,"NIH 3T3 fibroblasts; Mus musculus, NIH3T3",11.5 µM
same,IC50,[1]; [5],6.5 µM
"COC1=C(Br)[C@H](O)[C@](O)(CC#N)C=C1Br [Aeroplysin-1, aeroplysinin-1]",anti-malarial activity,[2],anti-malarial activity
C/C1=C/C(=O)C/C(C)=C/CC(C)(C)/C=C/C(=O)[C@@H](C)CCC1 [Compound 2],IC50,[3]; NIH 3T3 fibroblast cells,21.8 µM
same,IC50,[1]; [6],1.56 µM
same,Selectivity,[1]; Table 1,13.94
C/C1=C\CC(C)(C)/C=C/C(=O)[C@@H](C)CCC[C@H](C)CC(=O)C1 [Compound 3],IC50,[3]; NIH 3T3 fibroblast cells,20 µM
same,IC50,"[1]; Plasmodium falciparum, Dd2 strain printed for compound 3 only, strain not printed for 4 and HB39.A10, read-out: IC50",2.5 µM
same,IC50,[1]; [6],1.77 µM
same,Selectivity,[1]; Table 1,11.34
"COc1ccc(/C=C/CCCCC(C)[C@H](O)[C@@H](O)C2NC(=O)C[C@@H](O)CNC(=O)CNC(=O)[C@@H](Cc3c(C(=O)O)[nH]c4ccccc34)NC(=O)CN(C)C(=O)C[C@@]3(O)NC(=O)[C@H](O)C3NC(=O)[C@H]2O)cc1 (stereo partly shown) [Compound 4, microsclerodermin A]",IC50,[3],3.53 µM
same,IC50,"[1]; Plasmodium falciparum, DD2",0.73 µM
same,IC50,"[1]; Plasmodium falciparum, DD2, read-out: Dd2 IC50",0.075 µM
same,Selectivity,[1]; Table 1,47.07
"CCC(=O)NCCc1c2c3c(ccnc3c3ncsc13)-c1ccccc1N2 [Compound 5, dercitamide]",IC50,[3]; NIH 3T3 fibroblast cells,14.8 µM
same,cytotoxicity,[4],very moderate cytotoxicity
same,IC50,"[1]; Dd2 strain printed for compound 3 only, strain not printed for 4 and HB39.A10, read-out: IC50",2.3 µM
same,IC50,[1]; [6],1.05 µM
same,Selectivity,[1]; Table 1,14.13
"CN1CC(c2c[nH]c3c(Br)c(Br)cc(O)c23)NCC1c1c[nH]c2cc(Br)ccc12 (stereo not shown) [Dragmacidin 6, Dragmacidin]",IC50,NIH 3T3 fibroblasts,7.8 µM
same,IC50,[1]; [7],6.4 µM
"NC(N)=NCCSc1nc(-c2c[nH]c3cc(Br)ccc23)cnc1-c1c[nH]c2cc(Br)ccc12 [Dragmacidin G 12, Dragmacidin G]",IC50,NIH 3T3 fibroblasts,7.8 µM
same,IC50,[1]; [7],6.4 µM
"O=C1N[C@@H](c2c[nH]c3cc(Br)ccc23)CN=C1c1c[nH]c2cc(Br)ccc12 [Hamacanthin A 7, Hamacanthin A]",IC50,NIH 3T3 fibroblasts,30.4 µM
same,IC50,[1]; [7],3.2 µM
"O=C1NC[C@H](c2c[nH]c3cc(Br)ccc23)N=C1c1c[nH]c2cc(Br)ccc12 [Hamacanthin B 8, Hamacanthin B]",IC50,NIH 3T3 fibroblasts,38.6 µM
same,IC50,[1]; [7],> 20.6 µM
"Brc1ccc2c(-c3cnc(-c4c[nH]c5cc(Br)ccc45)[nH]3)c[nH]c2c1 [Nortopsentin A, reference compound]",IC50,"NIH 3T3 fibroblasts; Mus musculus, NIH3T3",6 µM
same,IC50,[1]; [5],0.6 µM
Dragmacidin D [Dragmacidin D 11],IC50,NIH 3T3 fibroblasts,27.7 µM
same,IC50,[1]; [7],5.2 µM
